How the values were obtained:
[1] = logP determination by HPLC on a reversed-phase column (C18), EEC Directive 79/831 Annex V.A8; format: physicochemical
Procedure: (§1) ^a) Note regarding the determination of the logP values and mass detection: The determination of the given logP values was carried out in accordance with EEC Directive 79/831 Annex V.A8 by HPLC (High Performance Liquid Chromatography) on a reversed-phase column (C18). Agilent 1100 LC system; 50*4.6 Zorbax Eclipse Plus C18 1.8 micron; mobile phase A: acetonitrile (0.1% formic acid); mobile phase B: water (0.09% formic acid); linear gradient from 10% acetonitrile to 95% acetonitrile in 4.25 min, then 95% acetonitrile for a further 1.25 min; oven temperature 55° C.; flow rate: 2.0 ml/min. Mass detection is carried out via an Agilend MSD system.
as §1, with “^*)” for “^a)”

[2] = system: engorged adult female cattle ticks (Boophilus microplus); assay: Boophilus microplus injection test (BOOPMI Inj); format: in vivo; details: application rate 20 μg/animal; injection into abdomen; assessed after 7 days
Procedure: C. Boophilus microplus-injection Test (BOOPMI Inj)
(§2) Solvent: dimethyl sulphoxide
To produce a suitable preparation of active compound, 10 mg of active compound are mixed with 0.5 ml of solvent, and the concentrate is diluted with solvent to the desired concentration.
1 μl of the active compound solution is injected into the abdomen of 5 engorged adult female cattle ticks (Boophilus microplus). The animals are transferred into dishes and kept in a climate-controlled room.
The activity is assessed after 7 days by laying of fertile eggs. Eggs whose fertility is not visible from the outside are stored in a climate-controlled cabinet until the larvae hatch after about 42 days. An efficacy of 100% means that none of the ticks has laid any fertile eggs; 0% means that all eggs are fertile.

[3] = system: adult cat fleas (Ctenocephalides felis); assay: Ctenocephalides felis oral test (CTECFE); format: in vivo; details: application rate 100 ppm in citrated cattle blood; after 2 days
Procedure: D. Ctenocephalides felis-oral Test (CTECFE)
as §2
To produce a suitable preparation of active compound, 10 mg of active compound are mixed with 0.5 ml of dimethyl sulphoxide. Dilution with citrated cattle blood gives the desired concentration.
About 20 unfed adult cat fleas (Ctenocephalides felis) are placed into a chamber which is closed at the top and bottom with gauze. A metal cylinder whose bottom end is closed with a parafilm is placed onto the chamber. The cylinder contains the blood/active ingredient preparation, which can be imbibed by the fleas through the parafilm membrane.
After 2 days, the kill in % is determined 100% means that all of the fleas have been killed; 0% means that none of the fleas have been killed.

[4] = system: L1 larvae of the Australian sheep blowfly (Lucilia cuprina); assay: Lucilia cuprina test (LUCICU); format: in vivo; details: application rate 100 ppm; after 2 days
Procedure: E. Lucilia cuprina Test (LUCICU)
as §2
To produce a suitable preparation of active compound, 10 mg of active compound are mixed with 0.5 ml of dimethyl sulphoxide, and the concentrate is diluted with water to the desired concentration.
About 20 L1 larvae of the Australian sheep blowfly (Lucilia cuprina) are transferred into a test vessel containing minced horsemeat and the active compound preparation of the desired concentration.
After 2 days, the kill in % is determined 100% means that all of the larvae have been killed; 0% means that none of the larvae have been killed.

[5] = system: larvae of the mustard beetle (Phaedon cochleariae); assay: Phaedon cochleariae spray test (PHAECO); format: in vivo; details: Chinese cabbage leaf discs, after 7 days
Procedure: H. Phaedon cochleariae-spray Test (PHAECO)
Solvents: 78.0 parts by weight of acetone
(§3) • 1.5 parts by weight of dimethylformamide Emulsifier: alkylaryl polyglycol ether
(§4) To produce a suitable preparation of active compound, 1 part by weight of active compound is dissolved using the stated parts by weight of solvent and made up with water comprising an emulsifier concentration of 1000 ppm until the desired concentration is reached. To produce further test concentrations, the preparation is diluted with emulsifier-containing water.
After 7 days, the efficacy in % is determined. 100% means that all of the beetle larvae have been killed; 0% means that none of the beetle larvae have been killed.

[6] = system: caterpillars of the armyworm (Spodoptera frugiperda); assay: Spodoptera frugiperda spray test (SPODFR); format: in vivo; details: maize leaf discs, after 7 days
Procedure: I. Spodoptera frugiperda-spray Test (SPODFR)
(§5) Solvent: 78.0 parts by weight of acetone
as §3, §4
Leaf discs of maize (Zea mays) are sprayed with an active compound preparation of the desired concentration and, after drying, populated with caterpillars of the armyworm (Spodoptera frugiperda).
After 7 days, the efficacy in % is determined. 100% means that all of the caterpillars have been killed; 0% means that none of the caterpillars have been killed.

[7] = system: adult cat fleas (Ctenocephalides felis); assay: Ctenocephalides felis in vitro contact test with adult cat fleas (T1); details: after 48 h
Procedure: T1. Ctenocephalides felis—in vitro Contact Tests with Adult Cat Fleas
(§6) For the coating of the test tubes, initially 9 mg of active compound are dissolved in 1 ml of acetone p.a. and then diluted with acetone p.a. to the desired concentration. By turning and rocking on an orbital shaker (2 h of rocking rotation at 30 rpm), 250 μl of the solution are distributed homogeneously on the internal walls and the floor of a 25 ml test tube. At 900 ppm active compound solution and 44.7 cm^2 internal surface, an area dose of 5 μg/cm^2 is achieved for homogeneous distribution.
After evaporation of the solvent, the tubes are populated with 5-10 adult cat fleas (Ctenocephalides felis), sealed with a perforated plastic lid and incubated in a horizontal position at room temperature and ambient humidity. After 48 h, the efficacy is determined. To this end, the test tubes are stood upright and the fleas are knocked to the floor of the tube. Fleas which remain motionless on the floor or move in an uncoordinated manner are considered to be dead or moribund.
An efficacy of 100% means that all fleas were dead or moribund. 0% efficacy means that none of the fleas had been damaged.

[8] = system: greenhouse red spider mite (Tetranychus urticae); assay: Tetranychus urticae spray test, OP-resistant (TETRUR); format: in vivo; details: application rate 500 g/ha; bean leaf discs; after 6 days
Procedure: J. Tetranychus urticae-spray Test, OP-Resistant (TETRUR)
as §5, §3, §4
Discs of bean leaves (Phaseolus vulgaris) which are infested by all stages of the greenhouse red spider mite (Tetranychus urticae) are sprayed with an active compound preparation of the desired concentration.
After 6 days, the efficacy in % is determined. 100% means that all of the spider mites have been killed; 0% means that none of the spider mites have been killed.

[9] = system: adult dog ticks (Rhipicephalus sanguineus); assay: Rhipicephalus sanguineus in vitro contact test with adult brown dog ticks (T2); details: after 48 h
Procedure: T2. Rhipicephalus sanguineus-in vitro Contact Tests with Adult Brown Dog Ticks
as §6
After evaporation of the solvent, the tubes are populated with 5-10 adult dog ticks (Rhipicephalus sanguineus), sealed with a perforated plastic lid and incubated in a horizontal position in the dark at room temperature and ambient humidity. After 48 h, the efficacy is determined. To this end, the ticks are knocked to the floor of the tube and incubated on a hotplate at 45-50° C. for at most 5 min Ticks which remain motionless on the floor or move in an uncoordinated manner such that they are not able to deliberately avoid the heat by climbing upwards are considered to be dead or moribund.
An efficacy of 100% means that all ticks were dead or moribund. 0% efficacy means that none of the ticks had been damaged.

[10] = HPLC on reversed-phase column (C18), acetonitrile/water with formic acid, EEC Directive 79/831 Annex V.A8
[11] = HPLC, reversed-phase C18, acetonitrile (0.1% formic acid)/water (0.09% formic acid) gradient

## Cn1nc(C(F)(F)C(F)(F)F)c(C(F)(F)F)c1-n1cc(-c2ccc(Cl)c(C(=O)NC3CC3)c2)c(C(F)(F)F)n1 [Ic-4]
[1]; [10]
  logP: 4.51
[2]
  efficacy (laying of fertile eggs): 100%
[3]
  efficacy (kill in %): 100%
[4]
  efficacy (kill in %): 100%

## O=C(NC1CC1)c1cc(-c2cnn(-c3c(C(F)(F)F)c(C(F)(F)C(F)(F)F)nn3-c3ccc([N+](=O)[O-])cc3)c2)ccc1Cl [Ic-8]
[1]; [10]
  logP: 4.54
[2]
  efficacy (laying of fertile eggs): 100%
[3]
  efficacy (kill in %): 100%
[4]
  efficacy (kill in %): 100%

## O=C(NC1CC1)c1cc(-c2cnn(-c3c(C(F)(F)F)c(C(F)(F)C(F)(F)F)nn3-c3ncccc3Cl)c2)ccc1Cl [Ic-14]
[5]; application rate 100 g/ha
  efficacy in %: 100%
[1]; [10]
  logP: 4.28
[2]
  efficacy (laying of fertile eggs): 100%
[6]; application rate 100 g/ha
  efficacy in %: 100%
[4]
  efficacy (kill in %): 100%

## N#CC1(NC(=O)c2cc(-c3cnn(-c4c(C(F)(F)F)c(C(F)(F)C(F)(F)F)nn4-c4ncccc4Cl)c3)ccc2Cl)CC1 [Ic-15]
[5]; application rate 100 g/ha
  efficacy in %: 100%
[1]; [10]
  logP: 4.15
[2]
  efficacy (laying of fertile eggs): 80%

## Cn1nc(C(F)(F)C(F)(F)F)c(C(F)(F)F)c1-n1cc(-c2ccc(Cl)c(C(=O)NCC(=O)NCC(F)(F)F)c2)cn1 [Ic-31]
[5]; application rate 100 g/ha
  efficacy in %: 100%
[1]; [10]
  logP: 3.65
[3]
  efficacy (kill in %): 100%
[4]
  efficacy (kill in %): 90%

## Cn1nc(C(F)(F)C(F)(F)F)c(C(F)(F)F)c1-n1cc(-c2cccc(C(N)=O)c2)cn1 [Ic-35]
[5]; application rate 100 g/ha
  efficacy in %: 100%
[1]; [10]
  logP: 3.1
[2]
  efficacy (laying of fertile eggs): 80%
[3]
  efficacy (kill in %): 100%
[4]
  efficacy (kill in %): 100%

## Cn1nc(C(F)(F)C(F)(F)F)c(C(F)(F)F)c1-n1cc(-c2cc(C(=O)NC3(C#N)CC3)ccc2F)cn1 [Ic-42]
[5]; application rate 500 g/ha
  efficacy in %: 100%
[2]
  efficacy (laying of fertile eggs): 100%
[3]
  efficacy (kill in %): 100%
[6]; application rate 500 g/ha
  efficacy in %: 83%
[4]
  efficacy (kill in %): 100%

## Cn1nc(C(F)(F)F)c(C#N)c1-n1cc(-c2ccc(Cl)c(C(=O)NC3(C#N)CC3)c2)cn1 [Ic-53]
[5]; application rate 100 g/ha
  efficacy in %: 100%
[1]; [10]
  logP: 2.92
[2]
  efficacy (laying of fertile eggs): 100%
[3]
  efficacy (kill in %): 100%
[4]
  efficacy (kill in %): 100%

## Cn1nc(C(F)(F)C(F)(F)F)c(C(F)(F)F)c1-n1cc(-c2cc(C(=O)NC3CC3)ncc2F)cn1 [Ic-72]
[5]; application rate 500 g/ha
  efficacy in %: 100%
[2]
  efficacy (laying of fertile eggs): 100%
[4]
  efficacy (kill in %): 80%

## Cn1nc(C(F)(F)C(F)(F)F)c(C(F)(F)F)c1-n1cc(-c2cc(OC(F)(F)F)cc(C(=O)NC3CC3)c2)cn1 [Ic-74]
[5]; application rate 500 g/ha
  efficacy in %: 100%
[2]
  efficacy (laying of fertile eggs): 100%
[3]
  efficacy (kill in %): 100%
[6]; application rate 500 g/ha
  efficacy in %: 100%
[4]
  efficacy (kill in %): 100%

## Cn1nc(C(F)(F)C(F)(F)F)c(C(F)(F)F)c1-n1cc(-c2cc(OC(F)(F)F)cc(C(=O)NC3(C#N)CC3)c2)cn1 [Ic-75]
[5]; application rate 500 g/ha
  efficacy in %: 100%
[2]
  efficacy (laying of fertile eggs): 100%
[3]
  efficacy (kill in %): 100%
[6]; application rate 500 g/ha
  efficacy in %: 100%
[4]
  efficacy (kill in %): 100%

## Cn1nc(C(F)(F)C(F)(F)F)c(C(F)(F)F)c1-n1cc(-c2cc(Cl)nc(C(=O)NC3CC3)c2)cn1 [Ic-88]
[5]; application rate 500 g/ha
  efficacy in %: 100%
[2]
  efficacy (laying of fertile eggs): 100%
[4]
  efficacy (kill in %): 100%

## Cn1nc(C(F)(F)C(F)(F)F)c(C(F)(F)F)c1-n1cc(-c2cc(Cl)nc(C(=O)NC3(C#N)CC3)c2)cn1 [Ic-89]
[5]; application rate 500 g/ha
  efficacy in %: 100%
[2]
  efficacy (laying of fertile eggs): 100%
[3]
  efficacy (kill in %): 90%
[6]; application rate 500 g/ha
  efficacy in %: 83%
[4]
  efficacy (kill in %): 100%

## Cn1nc(C(F)(F)C(F)(F)F)c(C(F)(F)F)c1-n1cc(-c2cc(C(=O)NC3CC3)c(Cl)cc2F)cn1 [Ic-92]
[5]; application rate 500 g/ha
  efficacy in %: 100%
[2]
  efficacy (laying of fertile eggs): 100%
[3]
  efficacy (kill in %): 80%
[4]
  efficacy (kill in %): 95%

## CC(C)CNC(=O)c1cc(-c2cnn(-c3c(C(F)(F)F)c(C(F)(F)C(F)(F)F)nn3C)c2)ccc1Cl [Ic-142]
[5]; application rate 500 g/ha
  efficacy in %: 100%
[7]; application rate 1 μg/cm^2
  efficacy (dead or moribund fleas): 100%
[7]; application rate 5 μg/cm^2
  efficacy (dead or moribund fleas): 100%
[8]
  efficacy in %: 100%
[6]; application rate 500 g/ha
  efficacy in %: 100%
[9]; application rate 1 μg/cm^2
  efficacy (dead or moribund ticks): 80%
[9]; application rate 5 μg/cm^2
  efficacy (dead or moribund ticks): 100%

## CONC(=O)c1cc(-c2cnn(-c3c(C(F)(F)F)c(C(F)(F)C(F)(F)F)nn3C)c2)ccc1Cl [Ic-155]
[7]; application rate 1 μg/cm^2
  efficacy (dead or moribund fleas): 100%
[7]; application rate 5 μg/cm^2
  efficacy (dead or moribund fleas): 100%
[9]; application rate 1 μg/cm^2
  efficacy (dead or moribund ticks): 100%
[9]; application rate 5 μg/cm^2
  efficacy (dead or moribund ticks): 100%

## Cn1nc(C(F)(F)C(F)(F)F)c(C(F)(F)F)c1-n1ccc(-c2ccc(Cl)c(C(=O)NC3CC3)c2)n1 [Id-2]
[5]; application rate 100 g/ha
  efficacy in %: 100%
[1]; [11]
  logP: 3.97
[2]
  efficacy (laying of fertile eggs): 100%
[3]
  efficacy (kill in %): 100%
[6]; application rate 100 g/ha
  efficacy in %: 100%
[4]
  efficacy (kill in %): 95%

## Cn1nc(C(F)(F)C(F)(F)F)c(C(F)(F)F)c1-n1cnc(-c2ccc(Cl)c(C(=O)NC3(C#N)CC3)c2)n1 [Ie-1]
[5]; application rate 100 g/ha
  efficacy in %: 100%
[1]; [11]
  logP: 3.62
[2]
  efficacy (laying of fertile eggs): 100%
[3]
  efficacy (kill in %): 100%
